What was measured:
Format in all cases: binding
[1] = biological target: T1, CCR3 (Homo sapiens, UniProt P51677); assay: NanoBRET screen HiBiT-CCR3 in HEK293; settings: CCR3
T1 construct: purchased Promega (in-house HiBiT-GPCR construct library, NanoBRET)
T1 sequence (P51677 1-355): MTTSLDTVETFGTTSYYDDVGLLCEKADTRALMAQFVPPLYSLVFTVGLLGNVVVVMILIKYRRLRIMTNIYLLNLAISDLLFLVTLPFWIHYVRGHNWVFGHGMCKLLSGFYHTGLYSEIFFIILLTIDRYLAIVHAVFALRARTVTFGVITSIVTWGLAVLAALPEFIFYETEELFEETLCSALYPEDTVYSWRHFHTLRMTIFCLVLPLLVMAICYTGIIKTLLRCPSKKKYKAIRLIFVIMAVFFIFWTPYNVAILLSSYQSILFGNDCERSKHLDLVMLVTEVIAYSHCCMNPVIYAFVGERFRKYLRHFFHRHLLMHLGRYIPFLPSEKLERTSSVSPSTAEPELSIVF
Procedure: (§1) Each tracer candidate was screened across the entire library of HiBiT-GPCR constructs using NanoBRET as the detection modality. As depicted in Figure 4A, the specificity of interactions was evaluated through decrease in BRET due to competitive displacement of a bound tracer by excess parental compound. Each tracer was analyzed for binding to each HiBiT-GPCR fusion in the absence and in the presence of competing parental compound. Briefly, HEK293 cells were transfected with HiBiT-GPCR constructs diluted into promoterless DNA to reduce expression and maximize translocation to the cell surface. Each tracer candidate was then screened at concentrations of 1 μM and 0.1 μM across cells expressing these fusions. Cells were treated for 1.5 h with tracer either alone or in the presence of 20 μM competing parental compound (i.e., control). BRET was measured upon addition of purified LgBiT and subsequent complementation with HiBiT genetically fused to a GPCR. The specificity of interactions was assessed through a decrease in BRET signal due to competitive displacement of the bound tracer. To further gauge the robustness of these interactions, the fold response over the control (i.e., BRETtracer/BRETcontrol) was calculated. We chose a 1.5-fold response, which translates to ≥7-fold signal over noise as the minimal threshold required to score an interaction as positive. […]. Below we highlight the screening results obtained for our exemplary fluorescent tracers based on Clozapine, Amitriptyline and AZD1283.
(§2) HiBiT-GPCR DNA constructs were diluted in 10 mM Tris pH 8 to a final concentration of 0.01 μg/μL, arrayed in 96-well plates and stored at −20 °C. For transfection, HEK293 cells were suspended in Opti-MEM (without phenol red) supplemented with 2% fetal bovine serum (Seradigm) and 100 units/mL penicillin–streptomycin (Gibco) at a final concentration of 220,000 cells/mL and dispensed into white 96-well plates at 90 μL/well. Subsequent transfections and screens were carried using an Agilent Bravo Automated Liquid Handling Platform. First, the 96-well HiBiT DNA arrays were diluted 25-fold in Opti-MEM (without serum or phenol red) to a final concentration of 0.0004 μg/μL and 20 μL of the diluted DNAs were transferred into new 96-well plates. Next, promoterless carrier DNA (1 μg/μL) was diluted 25-fold (0.04 μg/μL) and then dispensed into the diluted arrays at 20 μL/well. Following brief mixing, Viafect transfection reagent (Promega) diluted 16-fold into Opti-MEM was dispensed into the plates at 40 μL/well. After mixing by pipetting, plates were incubated for 10 min on the pipetting station deck. The DNA-transfection reagent complexes were then added to plates containing cells. To facilitate the screen, 10 μL of DNA-transfection reagent complexes were added in duplicates to the top 4 and bottom 4 rows, resulting in two identical 48-well arrays per plate. Plates with transfected cells were incubated for 18–20 h at 37 °C/5% CO2. A screen of each tracer across the entire library using two different concentrations requires duplicate plates of transfected cells. Depending on the number of tracers being screened, transfections can be scaled up using the same ratios. The next day, for each tracer, four 20× screening solutions in tracer dilution buffer (Promega) were prepared: two duplicates at final concentration of 20 μM and two duplicates at a final concentration of 2 μM. A competing unmodified compound was added to one of each duplicate at a final concentration of 400 μM. The four resulting solutions were diluted 4-fold in Opti-MEM without serum or phenol red to generate 5× solutions (5 µM and 0.5 µM tracer +/− 100 μM competing compound). To screen the library, a BioTek MultiFlo FX liquid dispenser was used to dispense 22.5 µL of tracer solution to the top 4 rows and 22.5 µL tracer + competing compound solution to the 4 bottom rows. Plates were briefly mixed on an orbital shaker and incubated for 1.5 h at room temperature. […]

[2] = biological target: T2, P2RY11 (Homo sapiens, UniProt Q96G91); assay: NanoBRET screen HiBiT-P2RY11 in HEK293; settings: P2RY11
T2 construct: purchased Promega (in-house HiBiT-GPCR construct library, NanoBRET)
T2 sequence (Q96G91 1-374): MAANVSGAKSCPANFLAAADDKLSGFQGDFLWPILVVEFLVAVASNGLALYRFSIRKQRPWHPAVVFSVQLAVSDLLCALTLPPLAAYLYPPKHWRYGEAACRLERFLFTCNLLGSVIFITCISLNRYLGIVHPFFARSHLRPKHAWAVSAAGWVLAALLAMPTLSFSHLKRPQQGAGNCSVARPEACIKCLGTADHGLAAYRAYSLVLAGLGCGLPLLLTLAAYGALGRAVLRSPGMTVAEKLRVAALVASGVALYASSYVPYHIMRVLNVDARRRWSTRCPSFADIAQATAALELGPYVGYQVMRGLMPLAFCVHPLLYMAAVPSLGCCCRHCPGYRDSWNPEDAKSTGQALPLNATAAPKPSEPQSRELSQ
Procedure: as §1, §2

[3] = biological target: T3, SSTR5 (Homo sapiens, UniProt P35346); assay: NanoBRET screen HiBiT-SSTR5 in HEK293; settings: SSTR5
T3 construct: purchased Promega (in-house HiBiT-GPCR construct library, NanoBRET)
T3 sequence (P35346 whole entry): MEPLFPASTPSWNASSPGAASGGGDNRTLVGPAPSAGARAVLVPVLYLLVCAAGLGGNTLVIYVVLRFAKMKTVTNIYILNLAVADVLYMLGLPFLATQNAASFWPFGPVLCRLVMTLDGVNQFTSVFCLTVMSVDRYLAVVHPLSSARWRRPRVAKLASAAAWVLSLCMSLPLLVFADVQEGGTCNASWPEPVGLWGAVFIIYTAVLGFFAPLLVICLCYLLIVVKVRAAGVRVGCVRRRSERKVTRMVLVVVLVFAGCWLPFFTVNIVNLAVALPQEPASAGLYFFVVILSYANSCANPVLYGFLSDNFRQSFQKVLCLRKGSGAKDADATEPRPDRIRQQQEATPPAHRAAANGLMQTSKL
Procedure: as §1, §2

[4] = biological target: T4, MC3R (Homo sapiens, UniProt P41968); assay: NanoBRET screen HiBiT-MC3R in HEK293; settings: MC3R
T4 construct: purchased Promega (in-house HiBiT-GPCR construct library, NanoBRET)
T4 sequence (P41968 whole entry): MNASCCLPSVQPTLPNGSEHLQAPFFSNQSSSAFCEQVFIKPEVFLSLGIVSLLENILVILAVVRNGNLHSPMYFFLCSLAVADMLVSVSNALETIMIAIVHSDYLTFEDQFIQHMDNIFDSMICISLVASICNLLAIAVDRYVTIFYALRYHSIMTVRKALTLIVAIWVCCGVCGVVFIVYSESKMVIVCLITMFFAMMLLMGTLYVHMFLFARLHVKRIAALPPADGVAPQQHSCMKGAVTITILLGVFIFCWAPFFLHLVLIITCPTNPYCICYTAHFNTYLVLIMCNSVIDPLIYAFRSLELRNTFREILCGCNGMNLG
Procedure: as §1, §2

[5] = biological target: T5, PTGDR (Homo sapiens, UniProt Q13258); assay: NanoBRET screen HiBiT-PTGDR in HEK293; settings: PTGDR
T5 construct: purchased Promega (in-house HiBiT-GPCR construct library, NanoBRET)
T5 sequence (Q13258 1-359): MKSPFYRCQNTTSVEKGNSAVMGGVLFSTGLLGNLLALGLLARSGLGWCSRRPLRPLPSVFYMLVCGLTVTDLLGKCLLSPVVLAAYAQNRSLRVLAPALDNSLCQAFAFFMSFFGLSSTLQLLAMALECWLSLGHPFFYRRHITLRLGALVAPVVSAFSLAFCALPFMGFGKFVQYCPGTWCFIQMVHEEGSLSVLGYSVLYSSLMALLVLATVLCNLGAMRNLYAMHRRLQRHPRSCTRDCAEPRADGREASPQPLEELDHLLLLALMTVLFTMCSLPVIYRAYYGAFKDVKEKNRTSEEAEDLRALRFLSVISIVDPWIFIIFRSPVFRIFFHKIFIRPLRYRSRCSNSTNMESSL
Procedure: as §1, §2

[6] = biological target: T6, GRM2 (Homo sapiens, UniProt Q14416); assay: NanoBRET screen HiBiT-GRM2 in HEK293; settings: GRM2
T6 construct: purchased Promega (in-house HiBiT-GPCR construct library, NanoBRET)
T6 sequence (Q14416 19-872): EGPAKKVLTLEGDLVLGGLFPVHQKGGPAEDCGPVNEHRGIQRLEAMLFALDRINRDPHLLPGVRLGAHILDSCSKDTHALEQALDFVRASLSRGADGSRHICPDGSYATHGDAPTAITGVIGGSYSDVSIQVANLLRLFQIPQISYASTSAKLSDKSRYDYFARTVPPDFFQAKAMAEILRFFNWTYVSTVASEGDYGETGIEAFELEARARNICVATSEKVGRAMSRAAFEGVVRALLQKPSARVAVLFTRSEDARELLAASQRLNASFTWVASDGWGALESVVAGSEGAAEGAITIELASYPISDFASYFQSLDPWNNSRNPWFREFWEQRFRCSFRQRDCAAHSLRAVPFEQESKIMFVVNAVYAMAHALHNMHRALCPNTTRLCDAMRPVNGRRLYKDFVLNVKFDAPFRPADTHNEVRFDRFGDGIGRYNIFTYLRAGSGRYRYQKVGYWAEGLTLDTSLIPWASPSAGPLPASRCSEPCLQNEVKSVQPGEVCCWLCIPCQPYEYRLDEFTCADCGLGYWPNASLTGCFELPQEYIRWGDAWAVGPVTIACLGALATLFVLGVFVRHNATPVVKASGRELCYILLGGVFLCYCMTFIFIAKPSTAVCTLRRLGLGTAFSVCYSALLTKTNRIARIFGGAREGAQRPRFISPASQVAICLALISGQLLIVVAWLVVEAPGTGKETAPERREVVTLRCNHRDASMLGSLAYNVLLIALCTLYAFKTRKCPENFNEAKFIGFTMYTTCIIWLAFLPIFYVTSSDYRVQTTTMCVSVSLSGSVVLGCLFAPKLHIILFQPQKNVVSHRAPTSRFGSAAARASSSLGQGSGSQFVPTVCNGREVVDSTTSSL
Procedure: as §1, §2

| SMILES | NanoBRET Fold Response ([1]; tracer 0.1μM) | NanoBRET Fold Response ([1]; tracer 1μM) | NanoBRET Fold Response ([2]; tracer 0.1μM) | NanoBRET Fold Response ([2]; tracer 1μM) | NanoBRET Fold Response ([3]; tracer 0.1μM) | NanoBRET Fold Response ([3]; tracer 1μM) | NanoBRET Fold Response ([4]; tracer 0.1μM) | NanoBRET Fold Response ([4]; tracer 1μM) | NanoBRET Fold Response ([5]; tracer 0.1μM) | NanoBRET Fold Response ([5]; tracer 1μM) | NanoBRET Fold Response ([6]; tracer 0.1μM) | NanoBRET Fold Response ([6]; tracer 1μM) | other results |
| --- | --- | --- | --- | --- | --- | --- | --- | --- | --- | --- | --- | --- | --- |
| O=C(CCc1ccc2n1[B-](F)(F)[N+]1=C(c3ccc[nH]3)C=CC1=C2)NCCOCCOCCNC(=O)OCCOCCN1CCN(C2=Nc3ccccc3Sc3ccccc32)CC1 [Quetiapine-a-2-NB590] | 1.11 | 0.98 | 1.05 | 0.91 | 1.03 | 0.83 | 0.98 | 1.08 | 0.99 | 1.02 | 0.92 | 1.06 | – |
| O=C(CCOCCOCCOCCOCCNC(=O)CCc1ccc2n1[B-](F)(F)[N+]1=C(c3ccc[nH]3)C=CC1=C2)NCCCN1CCN(C2=Nc3cc(Cl)ccc3Nc3ccccc32)CC1 [Clozapine-a-2-NB590] | – | – | – | – | – | – | – | – | – | – | – | – | NanoBRET Fold Response ([1]; 0.1μM tracer): 0.95; NanoBRET Fold Response ([1]; 1μM tracer): 0.78; NanoBRET Fold Response ([2]; 0.1μM tracer): 1.04; NanoBRET Fold Response ([2]; 1μM tracer): 0.93; NanoBRET Fold Response ([3]; 0.1μM tracer): 0.97; NanoBRET Fold Response ([3]; 1μM tracer): 1.00; NanoBRET Fold Response ([4]; 0.1μM tracer): 1.02; NanoBRET Fold Response ([4]; 1μM tracer): 0.95; NanoBRET Fold Response ([5]; 0.1μM tracer): 1.10; NanoBRET Fold Response ([5]; 1μM tracer): 0.99; NanoBRET Fold Response ([6]; 0.1μM tracer): 1.03; NanoBRET Fold Response ([6]; 1μM tracer): 1.01 |
| N#CN=C(NCCCOc1cccc(CN2CCCCC2)c1)NCCNC(=O)CCOCCOCCOCCOCCNC(=O)CCc1ccc2n1[B-](F)(F)[N+]1=C(c3ccc[nH]3)C=CC1=C2 [Aminopotentidine-2-NB590] | 0.95 | 0.89 | 1.14 | 1.03 | 0.97 | 1.00 | 1.00 | 1.01 | 0.99 | 0.79 | 1.05 | 0.99 | – |
| O=C(CCc1ccc2n1[B-](F)(F)[N+]1=C(c3ccc[nH]3)C=CC1=C2)NCc1ccc(C(=O)NCCOCCOCCNCC(O)COc2cccc3ccccc23)cc1 (stereo not drawn) [Propranolol-3-NB590] | – | – | – | – | – | – | – | – | – | – | – | – | NanoBRET Fold Response ([1]; 0.1μM): 1.04; NanoBRET Fold Response ([1]; 1μM): 1.01; NanoBRET Fold Response ([2]; 0.1μM): 1.03; NanoBRET Fold Response ([2]; 1μM): 0.96; NanoBRET Fold Response ([3]; 0.1μM): 1.01; NanoBRET Fold Response ([3]; 1μM): 1.02; NanoBRET Fold Response ([4]; 0.1μM): 1.05; NanoBRET Fold Response ([4]; 1μM): 0.99; NanoBRET Fold Response ([5]; 0.1μM): 1.05; NanoBRET Fold Response ([5]; 1μM): 0.98; NanoBRET Fold Response ([6]; 0.1μM): 0.94; NanoBRET Fold Response ([6]; 1μM): 1.05 |

Source: article PMC8151276, “An Integrated Approach toward NanoBRET Tracers for Analysis of GPCR Ligand Engagement” (Molecules, 2021)
